{"source": "patent US20230158036A1", "about": "“MEDICAMENT FOR THE TREATMENT OF PAIN” (Shionogi & Co., Ltd., priority 2020, published 2023)", "key": {"[1]": {"tested_on": "patients of interstitial cystitis/bladder pain syndrome", "settings": "twice daily oral, gradually increased from 50 mg to 300 mg, after 4 weeks; NPRS before administration 6.2; cited from earlier work"}, "[2]": {"tested_on": "knee osteoarthritis patients", "settings": "300 mg twice daily oral, after 4 weeks; NPRS before administration 6.8; cited from earlier work"}, "rat P2X3 receptor": {"target": "T1, rat P2X3 receptor (Rattus norvegicus, UniProt P49654)", "T1 construct": "expressed in transfected cells; host or cells: C6BU-1 cells (stably expressing line)", "T1 sequence (P49654 1-397)": "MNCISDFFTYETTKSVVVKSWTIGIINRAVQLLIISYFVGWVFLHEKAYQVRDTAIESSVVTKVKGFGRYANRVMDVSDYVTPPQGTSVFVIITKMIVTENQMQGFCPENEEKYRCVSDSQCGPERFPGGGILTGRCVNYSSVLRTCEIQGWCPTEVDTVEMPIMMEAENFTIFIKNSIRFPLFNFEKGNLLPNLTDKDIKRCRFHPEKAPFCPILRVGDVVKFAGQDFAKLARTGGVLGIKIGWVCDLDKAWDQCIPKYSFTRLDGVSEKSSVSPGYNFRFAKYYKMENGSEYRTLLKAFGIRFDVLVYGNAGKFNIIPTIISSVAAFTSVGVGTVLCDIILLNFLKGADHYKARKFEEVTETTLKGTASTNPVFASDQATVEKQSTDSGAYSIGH", "assay": "Evaluation of rat P2X3 receptor inhibitory activity in the presence of rat serum albumin (Test Example 4)", "type": "cell-based", "excerpt": "(Test Example 4) Evaluation of Rat P2X3 Receptor Inhibitory Activity in the Presence of Rat Serum Albumin (RSA)"}, "[3]": {"tested_on": "rat knee osteoarthritis model", "assay": "Drug efficacy in knee osteoarthritis pain model (MIA, hind limb load distribution; Test Example 7)", "type": "in vivo", "settings": "10 mg/kg oral, 3 hours after administration", "protocol": "(Test Example 7) Assessment of Drug Efficacy in Knee Osteoarthritis Pain Model\nPreparation of Rat Knee Osteoarthritis Model\nUnder isoflurane anesthesia, a knee joint on one side was shaved, and a monoiode sodium acetate (MIA) solution (saline solution, up to 5 mg/50 μL/rat) was intraarticularly administered.\nTwo weeks after the MIA administration, the analgesic effect of the compound represented by Formula (I) was evaluated. This test was based on a system for measuring a load distribution applied to hind limbs of a rat, and a ratio of load differences between left and right hind limbs was used as a pain threshold. On the day of the test, the pain threshold before the administration of the compound represented by Formula (I) was measured, and then after the administration of the test substance, the pain threshold was measured. […] Pain thresholds were measured for the hind limbs at 3 hours after the administration of the test substance, and these were used as post-administration pain thresholds. The load difference was measured up to three times, and the average value thereof was used as the pain threshold.\nA percent reversal value for each rat was calculated using the following formula. […]"}, "[4]": {"tested_on": "rat inflammatory pain model", "assay": "Drug efficacy in inflammatory pain model (FCA, Randall-Selitto; Test Example 8)", "type": "in vivo", "settings": "10 mg/kg oral, 1 hour after administration", "protocol": "(Test Example 8) Assessment of Drug Efficacy in Inflammatory Pain Model\nPreparation of Rat Inflammatory Pain Model\nUnder isoflurane anesthesia, FCA (12.5-100 μg) was subcutaneously injected into the hind limb of a rat to prepare an inflammatory pain model.\n(§1) Two weeks after the administration of FCA, the analgesic effect of the compound represented by Formula (I) was evaluated by the Randall-Selitto method. […] On the day of the test, the pain threshold before the administration of the compound represented by Formula (I) was measured, and then after the administration of the test substance, the pain threshold was measured. The compound represented by Formula (I) was homogenized with mortar and pestle and suspended in 0.5% Methyl Cellulose to prepare a suspension, and it was orally administered at 10 mg/kg to the animals using a syringe attached with a sonde. Pain thresholds were measured for the hind limbs at 1 hour after the administration of the test substance, and these were used as post-administration pain thresholds. A percent reversal value for each rat was calculated using the following formula. The analgesic effects of the compound were compared.\n% Reversal value=(post-administration pain threshold−pre-administration pain threshold)/(pain threshold of hind limb on FCA-non-administered side−pre-administration pain threshold)×100"}, "[5]": {"tested_on": "mouse bone cancer pain model", "assay": "Drug efficacy in mouse bone cancer pain model (NCTC2472 cells in femur, von Frey; Test Example 10)", "type": "in vivo", "settings": "10 mg/kg oral, two weeks after operation", "excerpt": "(Test Example 10) Assessment of Drug Efficacy in Mouse Bone Cancer Pain Model\nPreparation of Mouse Bone Cancer Pain Model\nThe skin was incised under isoflurane anesthesia, the muscles were torn to expose the left femur, a hole was made in the bone marrow cavity using a 26 G needle, and tumor cells (NCTC2472 cells derived from C3H/HeN mice) were transplanted using a 30 G needle. The hole made in the femoral bone marrow cavity was closed with dental cement, and then the skin was sutured. Mice in sham-operated groups were prepared by administering HBSS instead of tumor cells.\nTwo weeks after the operation, the effect on tactile allodynia was assessed using von Frey filaments. Two weeks after the operation, for habituation, the mice were placed into a plastic cage on a wire mesh bottom. […] The pain threshold was evaluated for the operated hind limb and defined as a pre-administration pain threshold, and the compound represented by the formula (I) was administered to the animal at 10 mg/kg. […] Pain thresholds were measured for the operated hind limbs after the administration of the test substance, and these were used as post-administration pain thresholds. A percent reversal value for each rat was calculated using the following formula. […]"}, "[6]": {"tested_on": "acetic acid-induced urination disorder model", "assay": "Drug efficacy in acetic acid-induced urination disorder model (Test Example 11)", "type": "in vivo", "settings": "rat, 3 mg/kg oral", "protocol": "(Test Example 11) Assessment of Drug Efficacy in Acetic Acid-Induced Urination Disorder Model\nPreparation of acetic acid-induced urination disorder model\nA catheter was placed in a rat bladder under isoflurane anesthesia. After 2 days from the surgery for placing the catheter, 0.3% acetic acid was administered at 4 mL/hr over 30 minutes to induce cystitis. In this model, the amount of urine per urinating action and the voiding interval decreased.\nOn the day after acetic acid was administered, the amount of urine per urinating action and the voiding interval before drug administration were evaluated. The compound represented by Formula (I) was homogenized with mortar and pestle and suspended in 0.5% Methyl Cellulose to prepare a suspension, and it was orally administered at 0.1 mg/kg, 0.75 mg/kg, or 3 mg/kg to the rats using a syringe attached with a sonde. The amount of urine per urinating action and the voiding interval during a period from 30 minutes to 150 minutes after administration were measured. The value before administration for each individual was assumed to be 100%, and the change rate after administration was calculated.\nRate of change in amount of voided urine per urinating action=(amount of urine per urinating action after drug treatment of cystitis rat[…]amount of voided urine per urinating action before drug treatment of cystitis rat)×100\nRate of change in voiding interval=(voiding interval after drug treatment of cystitis rat[…]voiding interval before drug treatment of cystitis rat)×100"}, "mouse bladder pain model": {"tested_on": "mouse bladder pain model", "assay": "Drug efficacy in cystitis pain model (cyclophosphamide, automatic von Frey; Test Example 9)", "type": "in vivo", "settings": "3 mg/kg oral, 1 hour after administration", "protocol": "(Test Example 9) Assessment of Drug Efficacy in Cystitis Pain Model\nPreparation of Mouse Bladder Pain Model\nCyclophosphamide was dissolved in physiological saline or the like, and the solution was intraperitoneally administered to mice. Cyclophosphamide was administered at 150 mg/kg once daily consecutively for four days. As a control, mice to which saline was administered were also prepared.\nThe analgesic effect of the compound represented by Formula (I) was evaluated the day after the final administration of cyclophosphamide. In this test, mechanical stimulation by an automatic von Frey device was applied to the periphery of the lower abdomen while holding the mouse, and with respect to the resulting escape behavior defined as pain-like behavior, the pain threshold was determined. On the day of the test, the pain threshold before the administration (pre-administration pain threshold) of the compound represented by Formula (I) was measured, and then after the administration of the test substance, the pain threshold was measured. […] Pain thresholds were measured at 1 hour after the administration of the test substance, and these were used as post-administration pain thresholds. A percent reversal value for each rat was calculated using the following formula. […]"}, "[7]": {"tested_on": "rat diabetic neuropathic pain model", "assay": "Drug efficacy in diabetic neuropathic pain model (STZ, Randall-Selitto; Test Example 6)", "type": "in vivo", "settings": "10 mg/kg oral, 3 hours after administration", "protocol": "(Test Example 6) Assessment of Drug Efficacy in Diabetic Neuropathic Pain Model\nPreparation of Rat Diabetic Neuropathic Pain Model\nTo overnight fasted rats, […] of streptozotocin (STZ) was intravenously administered to prepare a diabetes model. As a control, rats to which saline was administered were also prepared.\nas §1, with “STZ,” for “FCA,”, “3 hours” for “1 hour”\n% Reversal value=(post-administration pain threshold−pre-administration pain threshold)/(pain threshold of saline-administered rat−pre-administration pain threshold)×100"}, "[8]": {"tested_on": "partial sciatic nerve ligation model in rats", "assay": "Drug efficacy in Seltzer model (partial sciatic nerve ligation, von Frey tactile allodynia; Test Example 5)", "type": "in vivo", "settings": "rat, 10 mg/kg oral, 3 hours after administration, two weeks after operation", "excerpt": "(Test Example 5) Assessment of Drug Efficacy in Seltzer Model\nPartial Sciatic Nerve Ligation Model in Rats\nEach rat was anesthetized with isoflurane and the hair of the left thigh was shaved. An incision was made in the skin just below the hip bone. The muscle was bluntly dissected to expose the sciatic nerve. ⅓ to ½ of the sciatic nerve was strongly ligated with a thread, and the muscle and the skin were sutured. This is referred to as a nerve ligated side. The right thigh underwent an identical procedure with the left hind limb except for the ligation of the sciatic nerve. This is referred to as a sham operated side.\nTwo weeks after the operation, the effect on tactile allodynia was assessed using von Frey filaments. Two weeks after the operation, for habituation, the rats were placed into a plastic cage on a wire mesh bottom. […] Pain thresholds were measured for the left and right hind limbs and these were used as pre-treatment pain thresholds. […] Pain thresholds were measured for the right and left hind limbs at 3 hours after the drug administration, and these were used as post-treatment pain thresholds. A percent reversal value for each rat was calculated using the following formula. […]"}, "[9]": {"settings": "30 to 150 minutes after administration, value before administration = 100%"}}}
{"smiles": "COc1cc(C(C)C)c(Oc2cnc(N)nc2N)cc1S(N)(=O)=O", "note": "[Gefapixant]", "values": [{"measurement": "Numeric pain rating scale (NPRS) after administration", "setting": "[1]", "result": 3.3}, {"measurement": "Numeric pain rating scale (NPRS) after administration", "setting": "[2]", "result": 4.9}]}
{"smiles": "C[C@@H](Cn1c(=O)[nH]/c(=N\\c2ccc(Oc3ccccn3)cc2)n(Cc2ccc(Cl)cc2)c1=O)C(=O)O", "note": "[compound represented by Formula (I), (2S)-3-(3-[(4-chlorophenyl)methyl]-2,6-dioxo-4-([4-(pyridin-2-yloxy)phenyl]amino)-3,6-dihydro-1,3,5-triazin-1(2H)-yl)-2-methyl-propanoic acid]", "values": [{"measurement": "IC50", "setting": "rat P2X3 receptor", "result": 10, "unit": "nM"}, {"measurement": "Percent reversal value (load difference between left and right hind limbs)", "setting": "[3]", "result": 51, "unit": "%"}, {"measurement": "Percent reversal value (pain threshold, Randall-Selitto)", "setting": "[4]", "result": 58, "unit": "%"}, {"measurement": "Percent reversal value (pain threshold, von Frey)", "setting": "[5]", "result": 55, "unit": "%"}, {"measurement": "Rate of change in amount of voided urine per urinating action", "setting": "[6]; [9]", "result": 208.4, "unit": "%"}, {"measurement": "Rate of change in voiding interval", "setting": "[6]; [9]", "result": 219.0, "unit": "%"}, {"measurement": "Effect on voiding interval and amount of voided urine (FIGS. 1 and 2), in words", "setting": "[6]; p<0.05 vs vehicle (Dunnett)", "result": "significant improving effect"}, {"measurement": "Percent reversal value (lower abdomen pain threshold, automatic von Frey)", "setting": "mouse bladder pain model", "result": 46, "unit": "%"}, {"measurement": "Percent reversal value (pain threshold, Randall-Selitto)", "setting": "[7]", "result": 55, "unit": "%"}, {"measurement": "Percent reversal value (pain threshold, von Frey)", "setting": "[8]", "result": 65, "unit": "%"}]}
